Assay type in all cases: functional, organism-based
Test [1] deals with Mycobacterium tuberculosis. Put plainly: Antitubercular activity against Mycobacterium tuberculosis H37Rv harboring ppsB L1476S mutant at 12.5 uM incubated for 4 weeks by resazurin dye based fluorescence assay. For orientation: Resazurin is reduced to fluorescent resorufin, in cell work by metabolically active cells.
The subject of test [2] is Mycobacterium tuberculosis. Put plainly: Antitubercular activity against Mycobacterium tuberculosis H37Rv harboring mmpL3 V240A mutant at 12.5 uM incubated for 4 weeks by resazurin dye based fluorescence assay.
Test [3] relates to Mycobacterium tuberculosis. Put plainly: Antitubercular activity against Mycobacterium tuberculosis H37Rv harboring mmpL3 P239H mutant at 20 uM incubated for 4 weeks by resazurin dye based fluorescence assay.
Test [4] concerns Mycobacterium tuberculosis. Put plainly: Antitubercular activity against Mycobacterium tuberculosis H37Rv harboring lprM V86V mutant at 25 uM incubated for 4 weeks by resazurin dye based fluorescence assay.
Test [5] concerns Mycobacterium tuberculosis. Put plainly: Antitubercular activity against Mycobacterium tuberculosis H37Rv harboring fadD26 (336 amino acids) insertion mutant at 20 uM incubated for 4 weeks by resazurin dye based fluorescence assay.

Activity calls are given as the source filed them. The rule behind the calls is not given here.

In the case of `COC1CCN(Cc2cc(-c3ccc(C(C)C)cc3)n(-c3ccc(F)cc3)n2)CC1`, the result in test [1] and in test [2] was Active.

Regarding `CC(C)c1ccc(-c2cc(CN3CCN(c4ccccn4)CC3)nn2C2CCCCC2)cc1`, the outcome in test [3], in test [4] and in test [5] was Active.

The values above are taken from ChEMBL document CHEMBL4304832, “Novel Pyrazole-Containing Compounds Active against Mycobacterium tuberculosis” (ACS Med Chem Lett, 2019).
